ChEMBL document CHEMBL1139874, “New diphenylacetylenes as probes for positron emission tomographic imaging of amyloid plaques” (J Med Chem, 2007)

Key:
[1] = target: Amyloid-beta precursor protein (Homo sapiens, UniProt P05067); assay: Displacement of [125I]IMPY from human beta amyloid plaque in brain homogenates; format: tissue-based
[2] = system: Brain; assay: Biodistribution in ICR mouse brain at 5 to 10 uCi, iv after 30 mins; format: ADME, organism-based; conditions: in vivo, 0.5 h
[3] = system: Kidney; assay: Biodistribution in ICR mouse kidney at 5 to 10 uCi, iv after 1 hr; format: ADME, organism-based; conditions: in vivo
[4] = system: Brain; assay: Biodistribution in ICR mouse brain at 5 to 10 uCi, iv after 1 hr; format: ADME, organism-based; conditions: in vivo
[5] = system: Heart; assay: Biodistribution in ICR mouse heart at 5 to 10 uCi, iv after 2 hrs; format: ADME, organism-based; conditions: in vivo
[6] = system: Muscle tissue; assay: Biodistribution in ICR mouse muscle at 5 to 10 uCi, iv after 2 hrs; format: ADME, organism-based; conditions: in vivo
[7] = system: Heart; assay: Biodistribution in ICR mouse heart at 5 to 10 uCi, iv after 30 mins; format: ADME, organism-based; conditions: in vivo, 0.5 h
[8] = system: Muscle tissue; assay: Biodistribution in ICR mouse muscle at 5 to 10 uCi, iv after 30 mins; format: ADME, organism-based; conditions: in vivo, 0.5 h
[9] = system: Liver; assay: Biodistribution in ICR mouse liver at 5 to 10 uCi, iv after 30 mins; format: ADME, organism-based; conditions: in vivo, 0.5 h
[10] = system: Brain; assay: Biodistribution in ICR mouse brain at 5 to 10 uCi, iv after 2 mins; format: ADME, organism-based; conditions: in vivo
[11] = system: Muscle tissue; assay: Biodistribution in ICR mouse muscle at 5 to 10 uCi, iv after 1 hr; format: ADME, organism-based; conditions: in vivo
[12] = system: Blood; assay: Biodistribution in ICR mouse blood at 5 to 10 uCi, iv after 1 hr; format: ADME, organism-based; conditions: in vivo
[13] = system: Blood; assay: Biodistribution in ICR mouse blood at 5 to 10 uCi, iv after 30 mins; format: ADME, organism-based; conditions: in vivo, 0.5 h
[14] = system: Blood; assay: Biodistribution in ICR mouse blood at 5 to 10 uCi, iv after 2 hrs; format: ADME, organism-based; conditions: in vivo
[15] = system: Liver; assay: Biodistribution in ICR mouse liver at 5 to 10 uCi, iv after 2 hrs; format: ADME, organism-based; conditions: in vivo
[16] = system: Heart; assay: Biodistribution in ICR mouse heart at 5 to 10 uCi, iv after 1 hr; format: ADME, organism-based; conditions: in vivo
[17] = system: Liver; assay: Biodistribution in ICR mouse liver at 5 to 10 uCi, iv after 2 mins; format: ADME, organism-based; conditions: in vivo
[18] = system: Spleen; assay: Biodistribution in ICR mouse spleen at 5 to 10 uCi, iv after 30 mins; format: ADME, organism-based; conditions: in vivo, 0.5 h
[19] = system: Heart; assay: Biodistribution in ICR mouse heart at 5 to 10 uCi, iv after 2 mins; format: ADME, organism-based; conditions: in vivo
[20] = system: Kidney; assay: Biodistribution in ICR mouse kidney at 5 to 10 uCi, iv after 30 mins; format: ADME, organism-based; conditions: in vivo, 0.5 h
[21] = system: Bone; assay: Biodistribution in ICR mouse bone at 5 to 10 uCi, iv after 2 mins; format: ADME, organism-based, Bone element; conditions: in vivo
[22] = system: Zone of skin; assay: Biodistribution in ICR mouse skin at 5 to 10 uCi, iv after 2 mins; format: ADME, organism-based; conditions: in vivo
[23] = system: Muscle tissue; assay: Biodistribution in ICR mouse muscle at 5 to 10 uCi, iv after 2 mins; format: ADME, organism-based; conditions: in vivo
[24] = Partition coefficient, log P at pH 7.4; format: physicochemical; conditions: octanol/water
[25] = system: Spleen; assay: Biodistribution in ICR mouse spleen at 5 to 10 uCi, iv after 2 mins; format: ADME, organism-based; conditions: in vivo
[26] = system: Kidney; assay: Biodistribution in ICR mouse kidney at 5 to 10 uCi, iv after 2 mins; format: ADME, organism-based; conditions: in vivo
[27] = system: Zone of skin; assay: Biodistribution in ICR mouse skin at 5 to 10 uCi, iv after 1 hr; format: ADME, organism-based; conditions: in vivo
[28] = system: Lung; assay: Biodistribution in ICR mouse lung at 5 to 10 uCi, iv after 30 mins; format: ADME, organism-based; conditions: in vivo, 0.5 h
[29] = system: Zone of skin; assay: Biodistribution in ICR mouse skin at 5 to 10 uCi, iv after 2 hrs; format: ADME, organism-based; conditions: in vivo
[30] = system: Brain; assay: Biodistribution in ICR mouse brain at 5 to 10 uCi, iv after 2 hrs; format: ADME, organism-based; conditions: in vivo
[31] = system: Spleen; assay: Biodistribution in ICR mouse spleen at 5 to 10 uCi, iv after 2 hrs; format: ADME, organism-based; conditions: in vivo
[32] = system: Lung; assay: Biodistribution in ICR mouse lung at 5 to 10 uCi, iv after 2 mins; format: ADME, organism-based; conditions: in vivo
[33] = system: Bone; assay: Biodistribution in ICR mouse bone at 5 to 10 uCi, iv after 1 hr; format: ADME, organism-based, Bone element; conditions: in vivo
[34] = system: Bone; assay: Biodistribution in ICR mouse bone at 5 to 10 uCi, iv after 2 hrs; format: ADME, organism-based, Bone element; conditions: in vivo
[35] = system: Spleen; assay: Biodistribution in ICR mouse spleen at 5 to 10 uCi, iv after 1 hr; format: ADME, organism-based; conditions: in vivo
[36] = system: Lung; assay: Biodistribution in ICR mouse lung at 5 to 10 uCi, iv after 1 hr; format: ADME, organism-based; conditions: in vivo
[37] = system: Lung; assay: Biodistribution in ICR mouse lung at 5 to 10 uCi, iv after 2 hrs; format: ADME, organism-based; conditions: in vivo
[38] = system: Kidney; assay: Biodistribution in ICR mouse kidney at 5 to 10 uCi, iv after 2 hrs; format: ADME, organism-based; conditions: in vivo
[39] = system: Bone; assay: Biodistribution in ICR mouse bone at 5 to 10 uCi, iv after 30 mins; format: ADME, organism-based, Bone element; conditions: in vivo, 0.5 h
[40] = system: Blood; assay: Biodistribution in ICR mouse blood at 5 to 10 uCi, iv after 2 mins; format: ADME, organism-based; conditions: in vivo
[41] = system: Zone of skin; assay: Biodistribution in ICR mouse skin at 5 to 10 uCi, iv after 30 mins; format: ADME, organism-based; conditions: in vivo, 0.5 h
[42] = system: Liver; assay: Biodistribution in ICR mouse liver at 5 to 10 uCi, iv after 1 hr; format: ADME, organism-based; conditions: in vivo

Amyloid-beta precursor protein, sequence (P05067 whole entry): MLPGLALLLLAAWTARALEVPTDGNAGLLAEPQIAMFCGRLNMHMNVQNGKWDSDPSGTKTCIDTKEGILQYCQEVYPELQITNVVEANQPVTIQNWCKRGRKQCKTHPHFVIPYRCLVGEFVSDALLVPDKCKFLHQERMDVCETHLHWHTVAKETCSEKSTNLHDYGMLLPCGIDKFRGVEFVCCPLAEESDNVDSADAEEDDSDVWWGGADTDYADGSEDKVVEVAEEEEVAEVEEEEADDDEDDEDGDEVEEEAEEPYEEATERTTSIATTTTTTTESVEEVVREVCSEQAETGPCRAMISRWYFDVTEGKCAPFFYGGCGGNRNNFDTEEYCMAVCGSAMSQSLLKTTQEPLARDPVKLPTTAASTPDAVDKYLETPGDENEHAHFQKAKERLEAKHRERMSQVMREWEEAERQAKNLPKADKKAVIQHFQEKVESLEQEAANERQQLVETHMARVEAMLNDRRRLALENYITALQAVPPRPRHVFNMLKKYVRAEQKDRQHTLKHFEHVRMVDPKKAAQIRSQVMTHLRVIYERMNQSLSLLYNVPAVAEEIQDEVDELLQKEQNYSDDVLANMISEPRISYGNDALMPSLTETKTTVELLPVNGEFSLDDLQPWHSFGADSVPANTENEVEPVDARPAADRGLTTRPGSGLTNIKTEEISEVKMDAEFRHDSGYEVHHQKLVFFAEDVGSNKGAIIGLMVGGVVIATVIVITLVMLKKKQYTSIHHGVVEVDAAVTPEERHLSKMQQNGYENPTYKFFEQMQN

CN(C)c1ccc(C#Cc2ccc(OCCOCCF)cc2)cc1
Ki [1]: 5 nM

Nc1ccc(C#Cc2ccc(O)cc2)cc1
Ki [1]: 106 nM

CN(C)c1ccc(C#Cc2ccc(OCCOCCO)cc2)cc1
Ki [1]: 3.8 nM

CN(C)c1ccc(C#Cc2ccc(OCCOCCOCCF)cc2)cc1
Ki [1]: 2.9 nM

CN(C)c1ccc(C#Cc2ccc(OCCOCC[18F])cc2)cc1
Drug uptake [2]: 3.69 % ID/g
Drug uptake [3]: 4.79 % ID/g
Drug uptake [4]: 2.06 % ID/g
Drug uptake [5]: 2.11 % ID/g
Drug uptake [6]: 1.03 % ID/g
Drug uptake [7]: 2.82 % ID/g
Drug uptake [8]: 1.38 % ID/g
Drug uptake [9]: 11.2 % ID/g
Drug uptake [10]: 5.41 % ID/g
Drug uptake [11]: 1.21 % ID/g
Drug uptake [12]: 5.68 % ID/g
Drug uptake [13]: 6.13 % ID/g
Drug uptake [14]: 5.17 % ID/g
Drug uptake [15]: 8.85 % ID/g
Drug uptake [16]: 2.48 % ID/g
Drug uptake [17]: 19.3 % ID/g
Drug uptake [18]: 2.94 % ID/g
Drug uptake [19]: 10.5 % ID/g
Drug uptake [20]: 4.75 % ID/g
Drug uptake [21]: 1.78 % ID/g
Drug uptake [22]: 0.85 % ID/g
Drug uptake [23]: 0.91 % ID/g
logD [24]: 3.12
Drug uptake [25]: 5.12 % ID/g
Drug uptake [26]: 12.9 % ID/g
Drug uptake [27]: 1.71 % ID/g
Drug uptake [28]: 4.66 % ID/g
Drug uptake [29]: 1.67 % ID/g
Drug uptake [30]: 1.34 % ID/g
Drug uptake [31]: 2.31 % ID/g
Drug uptake [32]: 11.1 % ID/g
Drug uptake [33]: 1.36 % ID/g
Drug uptake [34]: 1.65 % ID/g
Drug uptake [35]: 2.38 % ID/g
Drug uptake [36]: 3.82 % ID/g
Drug uptake [37]: 3.38 % ID/g
Drug uptake [38]: 4.16 % ID/g
Drug uptake [39]: 1.41 % ID/g
Drug uptake [40]: 7.33 % ID/g
Drug uptake [41]: 2.23 % ID/g
Drug uptake [42]: 9.99 % ID/g

COc1ccc(C#Cc2ccc(N)cc2)cc1
Ki [1]: 2.9 nM

Nc1ccc(C#Cc2ccc(OCCOCCOCCO)cc2)cc1
Ki [1]: 67.6 nM

CN(C)c1ccc(C#Cc2ccc(OCCOCCOCCO)cc2)cc1
Ki [1]: 3.4 nM

Nc1ccc(C#Cc2ccc(OCCOCCOCCF)cc2)cc1
Ki [1]: 21.5 nM

CNc1ccc(C#Cc2ccc(OCCOCCOCCF)cc2)cc1
Ki [1]: 1.9 nM

CNc1ccc(C#Cc2ccc(OCCOCCOCCO)cc2)cc1
Ki [1]: 4.5 nM

CNc1ccc(C#Cc2ccc(OCCOCCO)cc2)cc1
Ki [1]: 3.1 nM

Oc1ccc(C#Cc2ccc(OCCOCCOCCF)cc2)cc1
Ki [1]: 16.5 nM

CNc1ccc(C#Cc2ccc(OCCOCCF)cc2)cc1
Ki [1]: 1.2 nM

COc1ccc(C#Cc2ccc(O)cc2)cc1
Ki [1]: 2.9 nM

CNc1ccc(C#Cc2ccc(O)cc2)cc1
Ki [1]: 1.5 nM

CNc1ccc(C#Cc2ccc(OCCOCCOCC[18F])cc2)cc1
Drug uptake [2]: 0.42 % ID/g
Drug uptake [3]: 2.4 % ID/g
Drug uptake [4]: 0.37 % ID/g
Drug uptake [5]: 0.96 % ID/g
Drug uptake [6]: 0.39 % ID/g
Drug uptake [7]: 1.4 % ID/g
Drug uptake [8]: 0.61 % ID/g
Drug uptake [9]: 14.8 % ID/g
Drug uptake [10]: 4.55 % ID/g
Drug uptake [11]: 0.62 % ID/g
Drug uptake [12]: 3.22 % ID/g
Drug uptake [13]: 3.28 % ID/g
Drug uptake [14]: 3.17 % ID/g
Drug uptake [15]: 9.14 % ID/g
Drug uptake [16]: 1.24 % ID/g
Drug uptake [17]: 25.8 % ID/g
Drug uptake [18]: 1.22 % ID/g
Drug uptake [19]: 4.21 % ID/g
Drug uptake [20]: 2.9 % ID/g
Drug uptake [21]: 1.5 % ID/g
Drug uptake [22]: 1.24 % ID/g
Drug uptake [23]: 1.97 % ID/g
logD [24]: 3.07
Drug uptake [25]: 2.69 % ID/g
Drug uptake [26]: 4.74 % ID/g
Drug uptake [27]: 0.95 % ID/g
Drug uptake [28]: 2.1 % ID/g
Drug uptake [29]: 0.6 % ID/g
Drug uptake [30]: 0.38 % ID/g
Drug uptake [31]: 1.02 % ID/g
Drug uptake [32]: 4.64 % ID/g
Drug uptake [33]: 0.65 % ID/g
Drug uptake [34]: 0.82 % ID/g
Drug uptake [35]: 0.95 % ID/g
Drug uptake [36]: 2.04 % ID/g
Drug uptake [37]: 1.72 % ID/g
Drug uptake [38]: 1.8 % ID/g
Drug uptake [39]: 0.66 % ID/g
Drug uptake [40]: 3.28 % ID/g
Drug uptake [41]: 1.4 % ID/g
Drug uptake [42]: 10.2 % ID/g

Nc1ccc(C#Cc2ccc(N)cc2)cc1
Ki [1]: 76 nM

C(#Cc1ccccc1)c1ccccc1 [DIPHENYLACETYLENE]
Ki [1]: 175 nM

Nc1ccc(C#Cc2ccc(OCCOCCF)cc2)cc1
Ki [1]: 12 nM

CN(C)c1ccc(C#Cc2ccc(OCCOCCOCC[18F])cc2)cc1
Drug uptake [2]: 1.57 % ID/g
Drug uptake [3]: 2.53 % ID/g
Drug uptake [4]: 0.77 % ID/g
Drug uptake [5]: 0.84 % ID/g
Drug uptake [6]: 0.42 % ID/g
Drug uptake [7]: 1.49 % ID/g
Drug uptake [8]: 0.67 % ID/g
Drug uptake [9]: 13.8 % ID/g
Drug uptake [10]: 6.78 % ID/g
Drug uptake [11]: 0.51 % ID/g
Drug uptake [12]: 2.51 % ID/g
Drug uptake [13]: 2.97 % ID/g
Drug uptake [14]: 2.35 % ID/g
Drug uptake [15]: 6.58 % ID/g
Drug uptake [16]: 1.04 % ID/g
Drug uptake [17]: 23.2 % ID/g
Drug uptake [18]: 1.39 % ID/g
Drug uptake [19]: 9.97 % ID/g
Drug uptake [20]: 2.68 % ID/g
Drug uptake [21]: 1.51 % ID/g
Drug uptake [22]: 0.68 % ID/g
Drug uptake [23]: 0.79 % ID/g
logD [24]: 3.18
Drug uptake [25]: 4.61 % ID/g
Drug uptake [26]: 12.4 % ID/g
Drug uptake [27]: 1.28 % ID/g
Drug uptake [28]: 2.26 % ID/g
Drug uptake [29]: 0.68 % ID/g
Drug uptake [30]: 0.42 % ID/g
Drug uptake [31]: 1.17 % ID/g
Drug uptake [32]: 8.38 % ID/g
Drug uptake [33]: 0.56 % ID/g
Drug uptake [34]: 0.7 % ID/g
Drug uptake [35]: 1.13 % ID/g
Drug uptake [36]: 1.26 % ID/g
Drug uptake [37]: 1.47 % ID/g
Drug uptake [38]: 2.02 % ID/g
Drug uptake [39]: 0.64 % ID/g
Drug uptake [40]: 5.72 % ID/g
Drug uptake [41]: 1.41 % ID/g
Drug uptake [42]: 8.13 % ID/g
